Values of other authors as cited in patent US9339460B2, “Self-emulsifiable liquid florfenicol composition intended to be incorporated into the drinking water of livestock” (VIRBAC SA, priority 2007, dated 2016).

Details: in water

- "miscibility" of Florfenicol: 12 g/L
Compound: CS(=O)(=O)c1ccc([C@@H](O)[C@@H](CF)NC(=O)C(Cl)Cl)cc1 [Florfenicol]
